The conditions of series [1]: 68Ga-labelled; Rousseau et al.; cited from earlier work.
In another series the test system is prostate cancer lesions. Particulars: cited from earlier work.
A further series concerns the target T1, PSMA (Homo sapiens, UniProt Q04609).
T1 construct: expressed in transfected cells; host or cells: PC3-PIP cells (washed membrane preparation after freeze/thaw)
Nature of the series: Competitive binding assay: NAAG hydrolysis by PC3-PIP membranes, Amplex Red glutamic acid readout. Particulars: for EC50: PC3-PIP membranes. The series is classed as biochemical. The procedure:
PC3-PIP PSMA-expressing cells were grown to confluency, harvested in 50 mM Tris-HCl (pH 7.5) and subjected to four freeze/thaw cycles. Cell membranes were washed three times by centrifugation at 12,000g or higher. The cell membranes were diluted to 50 mg/mL in 50 mM Tris-HCl (pH 7.5) (based on wet weight of the solid after centrifugation). Binding assays were conducted in 96 well plates. Phase 1 of the assay used wells containing 100 microliters 50 mM Tris-HCl (pH 7.5) with 4 microns NAAG and 10 microns of PC3-PIP membrane, to which differing concentrations of Compound 1 was added. The 96 well plate was incubated at 37° C. for 2 h. The glutamic acid concentration was measured with the Amplex Red glutamic acid assay kit (Invitrogen-Molecular Probes) using a fluorescent plate reader (530 nm excitation, 590 nm emission). The resulting fluorescence signals were normalized, and normalized fluorescence plotted against the concentration of ligand (log (nm)) (FIG. 1). EC50 was determined according to Eq. 1 (below). [formula]

The values that follow come from US12569577B2, “PSMA-targeting imaging agents” (The Cleveland Clinic Foundation, priority 2019, dated 2026).

The structures appear in SMILES notation. Read-outs that look alike come from different tables or passages of the source. *1 amine or outer side, *2 acyl side, *3 side chain or, on linkers, in order; H or OH if unused. Where a SMILES comes first, the peptide text is derived from it. The star is where a group is joined. DOTA = O=C(O)CN1CCN(CC(=O)O)CCN(CC(=O)*)CCN(CC(=O)O)CC1; γGlu = O=C(O)[CH](CCC(=O)[*:2])N[*:1]; CO = O=C([*:1])[*:2]; Ahx = NCCCCCC(=O)O

T1 sequence (Q04609 whole entry): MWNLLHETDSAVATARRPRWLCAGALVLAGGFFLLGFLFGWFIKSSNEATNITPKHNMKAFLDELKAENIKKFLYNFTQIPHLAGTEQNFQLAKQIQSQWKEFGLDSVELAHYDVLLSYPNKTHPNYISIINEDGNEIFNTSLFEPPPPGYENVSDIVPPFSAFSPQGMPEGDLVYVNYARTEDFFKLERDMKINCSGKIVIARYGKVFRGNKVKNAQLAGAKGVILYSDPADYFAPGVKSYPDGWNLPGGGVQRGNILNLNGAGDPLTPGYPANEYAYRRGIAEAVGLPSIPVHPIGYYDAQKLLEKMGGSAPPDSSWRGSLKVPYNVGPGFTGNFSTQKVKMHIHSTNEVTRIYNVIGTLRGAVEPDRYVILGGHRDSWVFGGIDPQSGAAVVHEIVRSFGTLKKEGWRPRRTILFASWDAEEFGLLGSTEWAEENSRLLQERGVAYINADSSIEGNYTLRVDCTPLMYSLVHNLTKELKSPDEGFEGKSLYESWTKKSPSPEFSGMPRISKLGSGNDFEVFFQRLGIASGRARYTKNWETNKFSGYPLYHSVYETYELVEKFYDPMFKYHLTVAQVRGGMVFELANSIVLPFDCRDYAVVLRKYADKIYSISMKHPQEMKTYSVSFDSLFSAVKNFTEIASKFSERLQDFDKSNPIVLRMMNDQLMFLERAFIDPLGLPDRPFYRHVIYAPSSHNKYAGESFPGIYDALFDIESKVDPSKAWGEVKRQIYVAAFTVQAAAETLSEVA

For `O=C(O)CCc1ccc(O)c(CN(CCN(CC(=O)O)Cc2cc(CCC(=O)NCCCCCC(=O)NCCCC[C@H](NC(=O)N[C@@H](CCC(=O)O)C(=O)O)C(=O)O)ccc2O)CC(=O)O)c1` [PSMA 11, Glu-NH—CO—NH-Lys (Ahx)-[^68Ga(HBEDCC], metal not drawn], in series [1], the “Biodistribution Blood” value was 0.31% ± 0.08%, the “Biodistribution Kidney” value is 182% ± 33%, the “Biodistribution Liver” value is given as 0.44% ± 0.13% and the “Biodistribution Muscle” value was 0.54% ± 0.14%. In series [1], the “Biodistribution Salivary Gland” value is listed as 10.00% ± 2.52%, the “Biodistribution Spleen” value was 22.2% ± 7.91% and the “Biodistribution Tumor” value is on record as 8.67% ± 1.97%. In the series on prostate cancer lesions (PSA <2.2 ng/ml), the “(per patient) lesion detection rate” value was 60%. Further, in the series with prostate cancer lesions (PSA >2.2 ng/ml), the “(per patient) lesion detection rate” value is reported as 100%.

Take `O=C(O)CCC(NC(=O)NC(CCCCNC(=O)CCC(NC(=O)CCC(NC(=O)c1ccc(F)nc1)C(=O)O)C(=O)O)C(=O)O)C(=O)O` (stereo not shown) [Compound 11]: the EC50 at PSMA (FIG. 2 and FIG. 3) was about 0.1 nM.

Consider `O=C(O)CCC(NC(=O)NC(CCCCNC(=O)CCC(NC(=O)CCC(NC(=O)C(Cc1ccc(O)cc1)NC(=O)CN1CCN(CC(=O)O)CCN(CC(=O)O)CCN(CC(=O)O)CC1)C(=O)O)C(=O)O)C(=O)O)C(=O)O` (stereo not shown) [Compound 14, E′K-E!E!Y-DOTA], for which the concentration for a half-maximal effect (EC50) at PSMA (FIG. 2 and FIG. 3) amounted to 0.39 ± 0.02 nM.

On to `NC(=O)C(CCCCNC(=O)CN1CCN(CC(=O)O)CCN(CC(=O)O)CCN(CC(=O)O)CC1)NC(=O)C(Cc1ccc(O)cc1)NC(=O)C(CCC(=O)O)NC(=O)C(CCC(=O)O)NC(=O)C(CCC(=O)O)NC(=O)CCCCCNC(=O)CCC(NC(=O)NC(CCC(=O)O)C(=O)O)C(=O)O` (stereo not shown) [Compound 1] ({Glu-CO-γGlu-Ahx}-EEEYK(DOTA)-NH2; configuration not given here), for which the 50% effective concentration (EC50) on PSMA (NAAG substrate, 37° C. 2 h, FIG. 1) came to 0.287 ± 0.064 nM. The Ki at PSMA (calculated from the competitive binding assay, read-out: estimated Ki to PSMA) is under 0.3 nM.
